Here are results for nine compounds from US20210253598A1, “ARYL ANNULATED MACROCYCLIC INDOLE DERIVATIVES” (priority 2017, published 2021).

Counter-ions that a name gives are not always drawn. Like-named read-outs stand apart in the source and are kept apart here. Where only a bound is given, the exact number is not on record here.

One assay addresses MCL-1 (Homo sapiens, UniProt Q07820, K194A/K197A/R201A). In words: Protein-protein interaction assay MCL-1/Noxa BH3 peptide, TR-FRET (MCL-1 assay, Assay 1). Type of assay: binding. The conditions noted are these: MCL-1 Assay [M] (median), MBP-MCL-1 / Noxa BH3 peptide. In a few lines:
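Human MBP-fused MCL-1 (aa 173-321; 1 nM final) was pre-incubated 10 min at 22 °C with compound in pH 7 Tris buffer containing NaCl, KF, Tween-20, DTT and BGG. Displacement of biotinylated Noxa BH3 peptide was read by TR-FRET (anti-MBP-Eu cryptate/streptavidin-XL665) after 1 h at 22 °C plus overnight at 4 °C. IC50 came from four-parameter fits against DMSO controls.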

Assay [1] relates to SUDHL5. In words: Induction of caspase-3/7 activity in SUDHL5 cells (Assay 4). Type of assay: cell-based. Particulars: Homo sapiens, SU-DHL-5, 3 h. Summed up:
(§1)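 DLBCL lines SUDHL5 and SUDHL10 were treated with compound for 3 h at 37 °C. Caspase-3/7 activity was then read by Caspase-Glo 3/7 luminescence after 1 h at 37 °C. Medium-only background was subtracted and values were normalized to the mean of DMSO-treated cells.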

Assay [2] relates to SUDHL10. In words: Induction of caspase-3/7 activity in SUDHL10 cells (Assay 4). Type of assay: cell-based. Particulars: Homo sapiens, SU-DHL10, 3 h. Summed up:
as §1

Assay [3] deals with SUDHL5. In words: Induction of cytotoxicity in SUDHL5 cells, CellTiter-Glo (Assay 6). Type of assay: cell-based. Particulars: Homo sapiens, SU-DHL-5, 5 h, SUDHL5, 5 hours incubation, median, read-out: Cytotox SUDHL5 [M] (median). Summed up:
(§2)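 Cells plated and held overnight at 37° C in a humidified incubator, then compound-treated for 5 hours at 37° C. Viability read by CellTiter-Glo luminescence after 15 minutes shaking at room temperature; cell-free medium served as control.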
(In ATP-based viability assays light output follows the ATP content of the culture.)

The subject of assay [4] is SUDHL10. In words: Induction of cytotoxicity in SUDHL10 cells, CellTiter-Glo (Assay 6). Type of assay: cell-based. Particulars: Homo sapiens, SU-DHL10, 5 h, SUDHL10, 5 hours incubation, median, read-out: Cytotox SUDHL10 [M] (median). In a few lines:
as §2

In assay [5] the test system is SUDHL5. In words: Anti-proliferative effect in SUDHL5 cells, CellTiter-Glo (Assay 7). Type of assay: cell-based. Particulars: Homo sapiens, SU-DHL-5, 72 h. How it is done:
(§3) Assessment of the Anti-Proliferative Effect of Compounds in Different Cell Lines
(§4) The impact of compounds on the proliferation of different cell lines was assessed using the CellTiter-Glo® Luminescent Cell Viability reagent from Promega (G7573).
(§5) In parallel, cells were plated in a reference (day 0) plate for time zero determination. Cells were incubated in a humidified incubator at 37° C. overnight.
(§6) Rim wells were excluded. The cells were incubated for 72 hours in a humidified incubator at 37° C. The day 0 plate was measured by adding 30 μL/well of CTG solution (CellTiter-Glo® Luminescent Cell Viability reagent, Promega G7573) to time zero wells in the reference plate followed by a 10 minutes incubation and luminescence reading at 0.1 ms. using the PHERAstar FS microplate reader (BMG Labtech).
(§7) After 72 hours incubation, the treated plates were measured in the same way as the day 0 plate mentioned above. The Bella DRC Master Sheet was used to calculate IC50s, with CI=day 0 values and C0=DMSO control values.

The next assay has as its system MV-4-11. Put plainly: Anti-proliferative effect in MV-4-11 cells, CellTiter-Glo (Assay 7). Type of assay: cell-based. Particulars: Homo sapiens, MV4-11, 72 h, several values per example. As to the method: as §3, §4, §5, §6, §7
Another assay deals with A2780. In words: Anti-proliferative effect in A2780 cells, CellTiter-Glo (Assay 7). Type of assay: cell-based. The conditions noted are these: Homo sapiens, A2780, 72 h, several values per example. How it is done:
as §3, §4, §5, §6, §7

[6] abbreviates: SUDHL5, 3 hours treatment, Caspase-Glo 3/7, median, read-out: Caspase SUDHL5 [M] (median).
The mark [7] stands for this setting: SUDHL10, 3 hours treatment, Caspase-Glo 3/7, median, read-out: Caspase SUDHL10 [M] (median).
[8] abbreviates: SUDHL5, 72 hours incubation, CellTiter-Glo, median, read-out: Antiproli SUDHL5 [M] (median).
Where [9] appears, read: MV-4-11, 72 hours incubation, CellTiter-Glo, read-out: Antiproli MV-4-11.
Setting [10] is: A2780, 72 hours incubation, CellTiter-Glo, read-out: Antiproli A2780.

MCL-1, sequence (Q07820 173-321 K194A/K197A/R201A, looked up): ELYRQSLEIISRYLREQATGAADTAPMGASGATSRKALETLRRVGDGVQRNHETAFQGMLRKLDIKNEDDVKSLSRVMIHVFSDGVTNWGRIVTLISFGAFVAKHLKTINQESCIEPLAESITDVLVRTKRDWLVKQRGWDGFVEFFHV

Turning to `Cc1c2c(nn1C)CN(C(=O)CC1CCOCC1)Cc1ccccc1Cn1c(C(=O)O)c(CCCOc3cccc4ccccc34)c3cccc-2c31` (racemic) [Example 21, (rac)-4,5-Dimethyl-17-[3-(naphthalen-1-yloxy)propyl]-8-(tetrahydro-2H-pyran-4-ylacetyl)-7,8,9,14-tetrahydro-5H-indolo[1,7-bc]pyrazolo[4,3-e][2,8]benzodiazacycloundecine-16-carboxylic Acid], the IC50 on MCL-1 was 3.5e-08 M; in the assay on SUDHL5 [3], 1.3e-05 M; in the assay on SUDHL10 [4] it was more than 3.3e-05 M; in the assay with SUDHL5 [5] (setting [8]), 1.1e-05 M; in the assay with MV-4-11 (setting [9]), 8.33e-06 M; in the assay on A2780 (setting [10]) it was 1.19e-05 M. Besides, the EC50 in the assay with SUDHL5 [1] (setting [6]) was 2e-05 M; in the assay with SUDHL10 [2] (setting [7]) it was more than 3.3e-05 M.

As for `Cc1c2c(nn1C)CN(C(=O)NC1CCOCC1)Cc1ccccc1Cn1c(C(=O)O)c(CCCOc3cccc4ccccc34)c3cccc-2c31` (racemic) [Example 24, (rac)-4,5-Dimethyl-17-[3-(naphthalen-1-yloxy)propyl]-8-(tetrahydro-2H-pyran-4-ylcarbamoyl)-7,8,9,14-tetrahydro-5H-indolo[1,7-bc]pyrazolo[4,3-e][2,8]benzodiazacycloundecine-16-carboxylic Acid], the IC50 against MCL-1 was 5.3e-08 M; in the assay on SUDHL5 [3], more than 3.3e-05 M; with SUDHL10 [4], more than 3.3e-05 M; with SUDHL5 [5] (setting [8]), more than 3.3e-05 M; in the assay on MV-4-11 (setting [9]), more than 3.3e-05 M; in the assay on A2780 (setting [10]), more than 3.3e-05 M. The EC50 in the assay on SUDHL5 [1] (setting [6]) and in the assay with SUDHL10 [2] (setting [7]) was more than 3.3e-05 M in each case.

Take `Cc1c2c(nn1C)CN(C(=O)NCC1CCOCC1)Cc1ccccc1Cn1c(C(=O)O)c(CCCOc3cccc4ccccc34)c3cccc-2c31` (racemic) [Example 27, (rac)-4,5-Dimethyl-17-[3-(naphthalen-1-yloxy)propyl]-8-[(tetrahydro-2H-pyran-4-ylmethyl)-carbamoyl]-7,8,9,14-tetrahydro-5H-indolo[1,7-bc]pyrazolo[4,3-e][2,8]benzodiazacycloundecine-16-carboxylic Acid]: the IC50 at MCL-1 is 3.1e-08 M; with SUDHL5 [3], more than 3.3e-05 M; in the assay on SUDHL10 [4], more than 3.3e-05 M; in the assay on SUDHL5 [5] (setting [8]) it was 2.7e-05 M; in the assay on MV-4-11 (setting [9]), 2.48e-05 M; with A2780 (setting [10]) it was 3.14e-05 M. Further, the EC50 in the assay with SUDHL5 [1] (setting [6]) and in the assay on SUDHL10 [2] (setting [7]) was more than 3.3e-05 M in each case.

Regarding `Cc1c2c(nn1C)CN(S(=O)(=O)CCN1CCOCC1)Cc1ccccc1Cn1c(C(=O)O)c(CCCOc3cccc4ccccc34)c3cccc-2c31` (racemic) [Example 30, (rac)-4,5-Dimethyl-8-{[2-(morpholin-4-yl)ethyl]sulfonyl}-17-[3-(naphthalen-1-yloxy)propyl]-7,8,9,14-tetrahydro-5H-indolo[1,7-bc]pyrazolo[4,3-e][2,8]benzodiazacycloundecine-16-carboxylic Acid], the IC50 turned out to be 3.7e-08 M against MCL-1; 8.6e-06 M in the assay with SUDHL5 [3]; 2.9e-05 M in the assay with SUDHL10 [4]; 4.6e-06 M in the assay on SUDHL5 [5] (setting [8]); 7.85e-06 M in the assay with MV-4-11 (setting [9]); 1.71e-05 M in the assay with A2780 (setting [10]). In addition, the figures for the EC50 in the assay on SUDHL5 [1] (setting [6]) and in the assay with SUDHL10 [2] (setting [7]) were 8.5e-06 M and more than 3.3e-05 M, respectively.

`Cc1c2c(nn1C)COCc1ccccc1Cn1c(C(=O)O)c(CCCOc3cccc4ccccc34)c3ccc(Cl)c-2c31` (racemic) [Example 36, (rac)-3-Chloro-4,5-dimethyl-17-[3-(naphthalen-1-yloxy)propyl]-5,7,9,14-tetrahydroindolo[7,1-fg]pyrazolo[3,4-d][2,8]benzoxazacycloundecine-16-carboxylic Acid]: the IC50 was determined as 3.2e-09 M at MCL-1; 3.8e-06 M in the assay with SUDHL5 [3]; 4.9e-06 M in the assay with SUDHL10 [4]; 3.6e-06 M in the assay on SUDHL5 [5] (setting [8]); 1.38e-06 M in the assay with MV-4-11 (setting [9]); 2.31e-05 M in the assay with A2780 (setting [10]). Further, the EC50 in the assay on SUDHL5 [1] (setting [6]) was 2.4e-06 M; in the assay with SUDHL10 [2] (setting [7]) it was 5.5e-06 M.

On to `Cc1c2c(nn1C)COCc1cccnc1Cn1c(C(=O)O)c(CCCOc3cccc4ccccc34)c3ccc(Cl)c-2c31` (racemic) [Example 39, (rac)-3-Chloro-4,5-dimethyl-17-[3-(naphthalen-1-yloxy)propyl]-5,7,9,14-tetrahydropyrazolo-[4′,3′:9,10]pyrido[3′,2′:3,4][1,6]oxazacycloundecino[8,7,6-hi]indole-16-carboxylic Acid], for which the IC50 is 1.6e-09 M on MCL-1; 3.3e-06 M with SUDHL5 [3]; 6.7e-06 M with SUDHL10 [4]; 2.4e-06 M in the assay on SUDHL5 [5] (setting [8]); 1.56e-05 M in the assay on MV-4-11 (setting [9]); more than 3.3e-05 M with A2780 (setting [10]). The EC50 was 3.7e-06 M with SUDHL5 [1] (setting [6]) and 5.7e-06 M with SUDHL10 [2] (setting [7]).

As for `Cc1nn(C)c2c1-c1c(F)ccc3c(CCCOc4ccc(F)c5ccccc45)c(C(=O)O)n(c13)Cc1ccccc1COC2` (racemic) [Example 82, (rac)-15-Fluoro-1-(3-((4-fluoronaphthalen-1-yl)oxy)propyl)-12,14-dimethyl-4,9,11,12-tetrahydrobenzo[3,4]pyrazolo[4′,3′:9,10][1]oxa[6]azacycloundecino[8,7,6-hi]indole-2-carboxylic Acid], the IC50 was 1.2e-08 M against MCL-1; 2.4e-05 M in the assay with SUDHL5 [3]; more than 3.3e-05 M with SUDHL10 [4]; 1e-05 M with SUDHL5 [5] (setting [8]); 1.45e-05 M in the assay with MV-4-11 (setting [9]); 2.85e-05 M in the assay on A2780 (setting [10]). In addition, the EC50 with SUDHL5 [1] (setting [6]) is 2.2e-05 M; with SUDHL10 [2] (setting [7]), more than 3.3e-05 M.

Turning to `CCc1c2c(nn1C)COCc1ccccc1Cn1c(C(=O)O)c(CCCOC3CCCc4ccccc43)c3ccc(F)c-2c31` (racemic) [Example 92, (rac)-14-Ethyl-15-fluoro-13-methyl-1-(3-((1,2,3,4-tetrahydronaphthalen-1-yl)oxy)propyl)-4,9,11,13-tetrahydrobenzo[3,4]pyrazolo[4′,3′:9,10][1]oxa[6]azacycloundecino[8,7,6-hi]indole-2-carboxylic Acid], the IC50 is 1.8e-08 M against MCL-1; 8.1e-06 M in the assay on SUDHL5 [3]; more than 3.3e-05 M in the assay on SUDHL10 [4]; more than 3.3e-05 M with SUDHL5 [5] (setting [8]); 6.15e-06 M with MV-4-11 (setting [9]); more than 3.3e-05 M with A2780 (setting [10]). Moreover, the EC50 was 1.5e-05 M in the assay with SUDHL5 [1] (setting [6]) and more than 3.3e-05 M in the assay with SUDHL10 [2] (setting [7]).

As to `Cc1c2c(nn1C)COCc1ncccc1Cn1c(C(=O)O)c(CCCOc3cccc4ccccc34)c3ccc(Cl)c-2c31` (single isomer, unassigned; enantiomer 2) [Example 44, 3-Chloro-4,5-dimethyl-17-[3-(naphthalen-1-yloxy)propyl]-5,7,9,14-tetrahydropyrazolo-[4′,3′:9,10]pyrido[2′,3′:3,4][1,6]oxazacycloundecino[8,7,6-hi]indole-16-carboxylic acid-N-ethylethanamine Salt (Enantiomer 2)], the IC50 worked out at 5.2e-09 M against MCL-1; 7.9e-06 M in the assay with SUDHL5 [3]; 1.5e-05 M with SUDHL10 [4]; 5.7e-06 M in the assay with SUDHL5 [5] (read-out: Antiproli SUDHL5 [M] (median), SUDHL5, 72 hours incubation, CellTiter-Glo); 1.54e-05 M in the assay on MV-4-11 (read-out: Antiproli MV-4-11 [M], MV-4-11, 72 hours incubation, CellTiter-Glo); 2.37e-05 M in the assay on A2780 (read-out: Antiproli A2780 [M], A2780, 72 hours incubation, CellTiter-Glo). The EC50 in the assay with SUDHL5 [1] (read-out: Caspase SUDHL5 [M] (median), SUDHL5, 3 hours treatment, Caspase-Glo 3/7) amounted to 7.8e-06 M; in the assay on SUDHL10 [2] (read-out: Caspase SUDHL10 [M] (median), SUDHL10, 3 hours treatment, Caspase-Glo 3/7) it was 1.5e-05 M.
